Laboratory results from patent US20040259173A1, “Method of determining target protein of drug” (priority 2001, published 2004).

Columns and labels:
Sam68 = molecular target: T1, Sam68 (Homo sapiens, UniProt Q07666); assay: Protease digestion assay with specific detection of Sam68 by Western blotting; type: biochemical; conditions: HCT116 cell lysate, 37° C. for 12 hours
T1 construct: endogenous in cells; host or cells: HCT116 (ATCC CCL-247) cell lysate
Protocol: By using Dulbecco's modification of Eagle's medium (DMEM) containing 10% fetal bovine serum, human colon tumor cell line HCT116 (ATCC number CCL-247) was cultured on 100 mm diameter dishes for cell culturing in a CO2 incubator at 37° C. under 5% CO2 condition, and proliferated by subculture with division into five portions every 3 days. The culture medium was removed from three HCT116 cell dishes on the third day from the subculture, and cells were washed by addition and successive removal of 10 ml of ice-cooled PBS. To these cells, 10 mL of RSB (10 mmol/L Tris-hydrochloride pH7.6, 10 mmol/L NaCl, 1.5 mmol/L MgCl2) having a low osmotic pressure was added. After the cells were put on ice for 10 minutes to allow expansion, the cells were detached from the dishes and put into 15 mL volume Dounce homogenizer together with the already added RBS. The cells were disrupted by 50 strokes of a pestle. This cell lysate was centrifuged at 4° C., 15,000 rpm for 30 minutes. […]
Sam68 in the cell lysate was detected by Western blotting as described below. […]
When the protease digestion assay described in (2) was conducted, a protease inhibitor cocktail (Complete; manufactured by Roche) which can inhibit wide variety of proteases was added along with UCS15A, and the same reaction was proceeded. After the electrophoresis, Sam68 was detected by Western blotting in a same manner to that of (3). […]

bone resorption = conditions: cited from earlier work
src = src (Homo sapiens, UniProt P12931); conditions: cited from earlier work
[1] = tested on: proteins in cell lysate of HCT116; assay: Protease digestion assay of HCT116 cell lysate, SDS-PAGE with Coomassie Brilliant Blue staining; type: biochemical, human; conditions: UCS15A 0-300 μmol/L, 37° C. for 12 hours, endogenous protease
Protocol: By using Dulbecco's modification of Eagle's medium (DMEM) containing 10% fetal bovine serum, human colon tumor cell line HCT116 (ATCC number CCL-247) was cultured on 100 mm diameter dishes for cell culturing in a CO2 incubator at 37° C. under 5% CO2 condition, and proliferated by subculture with division into five portions every 3 days. The culture medium was removed from three HCT116 cell dishes on the third day from the subculture, and cells were washed by addition and successive removal of 10 ml of ice-cooled PBS. To these cells, 10 mL of RSB (10 mmol/L Tris-hydrochloride pH7.6, 10 mmol/L NaCl, 1.5 mmol/L MgCl2) having a low osmotic pressure was added. After the cells were put on ice for 10 minutes to allow expansion, the cells were detached from the dishes and put into 15 mL volume Dounce homogenizer together with the already added RBS. The cells were disrupted by 50 strokes of a pestle. This cell lysate was centrifuged at 4° C., 15,000 rpm for 30 minutes. The obtained supernatant was collected, and divided into ten 1 mL aliquots.
UCS15A was isolated and purified from Streptmyces actinobacterium, according to the descriptions in Japanese Published Unexamined Patent Application No. 58-116686, and a dimethylsulfoxide (DMSO) solution at a concentration of 10 mmol/L was prepared. […]

src and Sam68 = src and Sam68 (Homo sapiens, UniProt Q07666); conditions: cited from earlier work
src and Sam68, sequence (Q07666 whole entry, species assumed): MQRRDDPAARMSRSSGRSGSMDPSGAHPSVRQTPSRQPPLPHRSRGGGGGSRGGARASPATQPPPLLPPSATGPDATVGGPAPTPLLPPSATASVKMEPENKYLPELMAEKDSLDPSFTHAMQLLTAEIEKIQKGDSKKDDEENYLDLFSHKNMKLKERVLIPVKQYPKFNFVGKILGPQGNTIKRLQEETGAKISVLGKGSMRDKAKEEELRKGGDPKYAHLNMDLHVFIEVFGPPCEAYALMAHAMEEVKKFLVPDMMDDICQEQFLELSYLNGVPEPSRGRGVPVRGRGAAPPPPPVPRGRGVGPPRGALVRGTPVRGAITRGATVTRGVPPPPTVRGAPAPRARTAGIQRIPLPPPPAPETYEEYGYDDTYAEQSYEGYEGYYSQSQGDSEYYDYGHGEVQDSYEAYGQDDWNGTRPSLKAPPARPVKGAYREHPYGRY

[2] = tested on: signal transduction of tyrosine kinase src; conditions: cited from earlier work

T1 sequence (Q07666 whole entry): as the sequence (Q07666 whole entry, species assumed) above

UCS15A
amount of Sam68 in the cell lysate (Western blotting) (Sam68; UCS15A 0-300 μmol/L, endogenous protease, without protease inhibitor): the amount of Sam68 in the cell lysate decreased with the increase of the UCS15A concentration | amount of Sam68 in the cell lysate with protease inhibitor (Western blotting) (Sam68; protease inhibitor cocktail (Complete) added along with UCS15A): the decrease of the amount of Sam68 in the cell lysate was inhibited by the addition of a protease inhibitor | inhibitory activity on bone resorption (bone resorption): has an inhibitory activity on bone resorption | inhibition of enzyme activity of src (src): not to inhibit the enzyme activity of src | change of protein amounts in the cell lysate (Coomassie Brilliant Blue stained gel) [1]: Several proteins, which decreased their amounts with the increase of UCS15A concentration, were observed | inhibition of binding between src and Sam68 (src and Sam68): specifically inhibit the binding between src and Sam68 | inhibition of signal transduction of tyrosine kinase src [2]: inhibit the signal transduction of tyrosine kinase src
